{
  "source": "paper PMC11945542",
  "about": "(Viruses, 2025)",
  "key": {"[1]": {"tested_on": "influenza virus (INFV) H1N1 A/California/07/09", "assay_type": "cell-based", "settings": "read-out: IC50 against influenza virus; Vero cells, MOI 0.01, 35 °C, TPCK trypsin"}, "[2]": {"tested_on": "human cytomegalovirus (HCMV) Merlin strain", "assay": "HCMV infectivity assay in human foreskin fibroblasts", "assay_type": "cell-based", "settings": "5 days, column of table headed IC50 [µM]"}, "[3]": {"tested_on": "herpes simplex virus (HSV) 1 MacIntyre", "assay_type": "cell-based, herpes simplex virus 1"}, "TIE-2 [4]": {"molecular_target": "T1, TIE-2 (Homo sapiens, UniProt Q02763)", "T1 sequence (Q02763 23-1124)": "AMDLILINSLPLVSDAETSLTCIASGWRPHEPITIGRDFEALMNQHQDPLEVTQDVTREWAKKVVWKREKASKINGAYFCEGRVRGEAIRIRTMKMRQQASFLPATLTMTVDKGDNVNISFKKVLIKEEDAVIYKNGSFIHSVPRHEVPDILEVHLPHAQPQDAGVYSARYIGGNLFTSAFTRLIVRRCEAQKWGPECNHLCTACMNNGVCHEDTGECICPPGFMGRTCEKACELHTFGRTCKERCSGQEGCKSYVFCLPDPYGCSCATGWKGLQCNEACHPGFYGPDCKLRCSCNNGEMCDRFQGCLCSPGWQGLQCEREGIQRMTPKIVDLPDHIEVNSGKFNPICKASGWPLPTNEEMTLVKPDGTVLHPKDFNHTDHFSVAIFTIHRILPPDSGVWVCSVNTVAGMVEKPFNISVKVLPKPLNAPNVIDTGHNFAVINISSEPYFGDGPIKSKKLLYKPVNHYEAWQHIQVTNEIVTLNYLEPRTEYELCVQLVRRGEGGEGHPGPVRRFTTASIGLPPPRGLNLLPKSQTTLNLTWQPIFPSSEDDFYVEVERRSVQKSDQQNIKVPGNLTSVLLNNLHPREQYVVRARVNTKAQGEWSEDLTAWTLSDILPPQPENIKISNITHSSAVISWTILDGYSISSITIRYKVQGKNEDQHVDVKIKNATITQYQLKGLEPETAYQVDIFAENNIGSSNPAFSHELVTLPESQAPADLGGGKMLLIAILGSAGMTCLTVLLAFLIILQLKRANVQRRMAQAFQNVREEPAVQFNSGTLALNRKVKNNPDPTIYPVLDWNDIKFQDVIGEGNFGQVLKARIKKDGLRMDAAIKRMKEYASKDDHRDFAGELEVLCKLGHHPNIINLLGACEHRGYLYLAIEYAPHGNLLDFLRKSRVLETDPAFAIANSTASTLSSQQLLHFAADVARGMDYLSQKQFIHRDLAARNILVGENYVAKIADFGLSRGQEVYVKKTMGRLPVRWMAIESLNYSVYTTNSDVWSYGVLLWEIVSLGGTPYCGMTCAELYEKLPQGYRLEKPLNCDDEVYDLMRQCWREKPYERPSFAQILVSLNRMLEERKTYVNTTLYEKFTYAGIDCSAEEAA", "assay": "Vanadate-induced TIE-2 receptor phosphorylation in CHO cells", "assay_type": "cell-based", "design": "host or cells: Chinese hamster ovary (CHO) cells", "settings": "Chinese hamster ovary (CHO) cells, read-out: IC50, vanadate-induced inhibition of TIE-2 receptor phosphorylation"}, "[5]": {"tested_on": "Zika virus (ZIKV) FSS13025", "assay_type": "cell-based"}, "SARS-CoV-2 [6]": {"tested_on": "SARS-CoV-2", "assay": "microbe, parasite or virus in culture", "assay_type": "cell-based", "settings": "Calu-3 cells, 48 h, immunofluorescence of infected cells"}, "[7]": {"tested_on": "chikungunya virus (CHKV) 181/25", "assay_type": "cell-based"}, "[8]": {"tested_on": "Herpes simplex virus (HSV) 2 MS", "assay_type": "cell-based, herpes simplex virus 2"}, "human adenovirus (HAdV)": {"tested_on": "human adenovirus (HAdV)", "assay": "microbe, parasite or virus in culture", "assay_type": "cell-based, human adenovirus serotype 11 (RCAd11pGFP)"}, "[9]": {"tested_on": "Rift Valley fever virus (RVFV)", "assay_type": "cell-based", "settings": "A549 cells, primary screening, 100 to 0.4 µM, 16 h post infection"}, "adenovirus 5 (HAdV5)": {"tested_on": "adenovirus 5 (HAdV5)", "assay": "microbe, parasite or virus in culture", "assay_type": "cell-based", "settings": "read-out: IC50 against HAdV type 5"}, "[10]": {"tested_on": "dengue virus (DNV) serotype 2 D2Y98P", "assay": "microbe, parasite or virus in culture", "assay_type": "cell-based, dengue virus serotype 2", "settings": "read-out: IC50 against dengue virus type 2"}, "SARS-CoV-2 [11]": {"tested_on": "SARS-CoV-2", "assay": "microbe, parasite or virus in culture", "assay_type": "cell-based", "settings": "for pIC50: read-out: IC50 against SARS-CoV-2"}, "CDK8": {"molecular_target": "CDK8 (Homo sapiens, UniProt P49336)", "sequence (P49336 whole entry)": "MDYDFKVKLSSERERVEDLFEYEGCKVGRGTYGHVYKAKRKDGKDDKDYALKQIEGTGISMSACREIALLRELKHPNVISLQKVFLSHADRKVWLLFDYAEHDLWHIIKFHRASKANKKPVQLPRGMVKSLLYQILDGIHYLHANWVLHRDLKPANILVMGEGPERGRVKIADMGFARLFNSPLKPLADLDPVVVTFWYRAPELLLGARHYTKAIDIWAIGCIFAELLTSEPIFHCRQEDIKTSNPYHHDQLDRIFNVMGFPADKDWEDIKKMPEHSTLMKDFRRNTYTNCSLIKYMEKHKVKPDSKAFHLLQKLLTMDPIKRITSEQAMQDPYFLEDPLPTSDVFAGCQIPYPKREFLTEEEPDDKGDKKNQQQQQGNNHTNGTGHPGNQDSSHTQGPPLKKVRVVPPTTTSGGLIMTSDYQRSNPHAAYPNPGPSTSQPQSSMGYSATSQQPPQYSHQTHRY", "sequence (P24863 whole entry partner)": "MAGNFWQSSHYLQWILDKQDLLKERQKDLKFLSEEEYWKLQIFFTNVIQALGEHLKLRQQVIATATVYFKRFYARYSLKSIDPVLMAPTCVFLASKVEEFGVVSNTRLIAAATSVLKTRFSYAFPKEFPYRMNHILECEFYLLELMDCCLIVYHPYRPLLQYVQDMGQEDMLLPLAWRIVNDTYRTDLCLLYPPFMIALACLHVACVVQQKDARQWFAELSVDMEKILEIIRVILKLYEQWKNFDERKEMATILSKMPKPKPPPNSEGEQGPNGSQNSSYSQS", "assay": "Kinase inhibition profile: CDK8", "assay_type": "biochemical", "settings": "kinase inhibition profile (DSTT, Cerep); preliminary"}, "MAPK14": {"molecular_target": "MAPK14 (Homo sapiens, UniProt Q16539)", "sequence (Q16539 whole entry)": "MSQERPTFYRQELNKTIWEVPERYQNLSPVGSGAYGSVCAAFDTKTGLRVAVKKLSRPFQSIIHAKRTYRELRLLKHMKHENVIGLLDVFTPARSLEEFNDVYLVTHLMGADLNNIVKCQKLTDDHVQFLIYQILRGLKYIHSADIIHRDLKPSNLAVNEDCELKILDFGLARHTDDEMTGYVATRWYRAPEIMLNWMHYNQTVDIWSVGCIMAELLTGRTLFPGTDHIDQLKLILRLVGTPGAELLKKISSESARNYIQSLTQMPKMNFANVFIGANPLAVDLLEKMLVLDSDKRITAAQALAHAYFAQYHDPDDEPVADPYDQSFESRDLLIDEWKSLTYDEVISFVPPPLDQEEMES", "assay": "Kinase inhibition profile: MAPK14", "assay_type": "biochemical", "settings": "kinase inhibition profile (DSTT, Cerep); preliminary"}, "MAPK11": {"molecular_target": "MAPK11 (Homo sapiens, UniProt Q15759)", "sequence (Q15759 whole entry)": "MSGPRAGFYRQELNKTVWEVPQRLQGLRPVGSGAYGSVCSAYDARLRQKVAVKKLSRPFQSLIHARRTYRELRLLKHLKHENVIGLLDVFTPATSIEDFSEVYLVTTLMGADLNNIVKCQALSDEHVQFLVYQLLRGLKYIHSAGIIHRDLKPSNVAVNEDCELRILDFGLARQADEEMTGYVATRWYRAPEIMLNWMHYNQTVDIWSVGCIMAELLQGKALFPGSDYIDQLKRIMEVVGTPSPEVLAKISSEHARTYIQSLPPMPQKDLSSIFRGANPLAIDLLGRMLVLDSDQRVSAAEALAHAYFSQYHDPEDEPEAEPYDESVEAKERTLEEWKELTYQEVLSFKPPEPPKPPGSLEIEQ", "assay": "Kinase inhibition profile: MAPK11", "assay_type": "biochemical", "settings": "kinase inhibition profile (DSTT, Cerep); preliminary"}, "KDR": {"molecular_target": "KDR (Homo sapiens, UniProt P35968)", "sequence (P35968 20-1356)": "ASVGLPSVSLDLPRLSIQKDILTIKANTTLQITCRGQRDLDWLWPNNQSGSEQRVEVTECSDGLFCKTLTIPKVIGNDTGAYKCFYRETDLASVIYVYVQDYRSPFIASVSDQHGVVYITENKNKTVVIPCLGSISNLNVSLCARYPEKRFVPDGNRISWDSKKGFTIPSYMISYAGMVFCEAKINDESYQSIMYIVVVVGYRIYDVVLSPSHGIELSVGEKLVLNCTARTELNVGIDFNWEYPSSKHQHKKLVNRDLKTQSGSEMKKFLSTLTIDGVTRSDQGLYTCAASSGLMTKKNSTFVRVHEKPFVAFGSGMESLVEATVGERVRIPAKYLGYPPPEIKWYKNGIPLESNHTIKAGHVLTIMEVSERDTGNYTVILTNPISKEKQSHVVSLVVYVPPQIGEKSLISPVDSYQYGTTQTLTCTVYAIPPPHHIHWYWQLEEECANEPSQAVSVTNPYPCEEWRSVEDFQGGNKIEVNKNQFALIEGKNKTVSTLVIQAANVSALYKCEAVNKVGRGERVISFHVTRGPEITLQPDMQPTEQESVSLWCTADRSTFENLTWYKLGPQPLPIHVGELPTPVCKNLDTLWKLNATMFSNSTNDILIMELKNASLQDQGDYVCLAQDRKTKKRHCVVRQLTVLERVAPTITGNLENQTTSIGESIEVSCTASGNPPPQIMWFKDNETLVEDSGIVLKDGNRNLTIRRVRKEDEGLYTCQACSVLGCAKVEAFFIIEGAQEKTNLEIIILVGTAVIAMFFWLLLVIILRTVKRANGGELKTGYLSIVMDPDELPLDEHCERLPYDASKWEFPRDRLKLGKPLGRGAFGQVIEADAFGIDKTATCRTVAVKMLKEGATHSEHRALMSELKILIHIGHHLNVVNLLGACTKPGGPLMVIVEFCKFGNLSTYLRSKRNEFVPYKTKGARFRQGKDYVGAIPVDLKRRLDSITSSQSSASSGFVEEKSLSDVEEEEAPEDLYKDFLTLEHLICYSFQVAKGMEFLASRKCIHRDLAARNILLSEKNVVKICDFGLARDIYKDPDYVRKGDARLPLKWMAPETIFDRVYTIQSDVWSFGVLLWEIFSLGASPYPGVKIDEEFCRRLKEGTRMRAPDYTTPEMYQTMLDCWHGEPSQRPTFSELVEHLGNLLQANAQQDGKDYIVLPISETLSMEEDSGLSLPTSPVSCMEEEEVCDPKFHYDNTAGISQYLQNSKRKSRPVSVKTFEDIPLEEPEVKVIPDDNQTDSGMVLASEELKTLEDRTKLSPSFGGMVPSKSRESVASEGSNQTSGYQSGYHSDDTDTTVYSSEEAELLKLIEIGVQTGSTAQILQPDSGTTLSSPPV", "assay": "Kinase inhibition profile: KDR"}, "TIE-2 [12]": {"molecular_target": "T1, TIE-2", "assay": "Kinase inhibition profile: TIE-2", "assay_type": "biochemical", "settings": "kinase inhibition profile (DSTT, Cerep); preliminary"}, "SARS-CoV-2 [13]": {"tested_on": "SARS-CoV-2", "assay_type": "in vivo, mice (B6.Cg-Tg(K18-ACE2)2Prlmn/J)", "settings": "K18-ACE2 mice, oral b.i.d., vs placebo"}, "SARS-CoV-2 [14]": {"tested_on": "SARS-CoV-2", "assay": "Primary human mucociliary airway (ALI) SARS-CoV-2 infection model", "assay_type": "cell-based", "settings": "tested at 10 µM"}, "[15]": {"settings": "60 mg/kg (Figure 7), 100 mg/kg (methods)"}},
  "note": "pEC50, pIC50: −log10 of the molar value. “Also recorded” adds a separate entry of the source. Read-outs that look alike come from different tables or passages of the source.",
  "data": [
    {"smiles": "CNC(=O)c1cc(Oc2ccc(NC(=O)Nc3cc(C(F)(F)F)ccc3-n3cncn3)cc2)ccn1", "note": "[Compound 1]", "values": [
      {"measurement": "pIC50", "setting": "[1]", "value": 4.40},
      {"measurement": "activity against HCMV", "setting": "[2]", "value": "Active"},
      {"measurement": "activity against HSV-1", "setting": "[3]", "value": "Not Active"},
      {"measurement": "pIC50", "setting": "TIE-2 [4]", "value": 7.57},
      {"measurement": "activity against ZIKV", "setting": "[5]", "value": "Not Active"},
      {"measurement": "IC50 against SARS-CoV-2", "setting": "SARS-CoV-2 [6]", "value": "did not exhibit antiviral properties"},
      {"measurement": "activity against CHKV", "setting": "[7]", "value": "Not Active"},
      {"measurement": "activity against HSV-2", "setting": "[8]", "value": "Active"},
      {"measurement": "pEC50", "setting": "human adenovirus (HAdV); Human adenovirus sp., A549, 24 h, read-out: EC50 against HAdV", "value": 5.35},
      {"measurement": "antiviral activity against RVFV (in words)", "setting": "[9]", "value": "antiviral activity was seen at 25 µM"},
      {"measurement": "pIC50", "setting": "adenovirus 5 (HAdV5); Human mastadenovirus C, Vero", "value": 5.93},
      {"measurement": "pIC50", "setting": "adenovirus 5 (HAdV5)", "value": 5.94},
      {"measurement": "pIC50", "setting": "[10]; Dengue virus, Vero", "value": 5.07},
      {"measurement": "pIC50", "setting": "[10]", "value": 5.07},
      {"measurement": "SI (selectivity index)", "setting": "SARS-CoV-2 [11]; HeLa-ACE2 cells", "value": 5},
      {"measurement": "pIC50", "setting": "SARS-CoV-2 [11]; Severe acute respiratory syndrome coronavirus 2, HeLa-ACE2, 24 h", "value": 5.49}
    ]},
    {"smiles": "CNC(=O)c1cc(Oc2ccc(NC(=O)Nc3cc(C(F)(F)F)ccc3-n3ccnc3)cc2)ccn1", "note": "[Compound 2]", "values": [
      {"measurement": "pIC50", "setting": "TIE-2 [4]; unit given as nm", "value": 8.52},
      {"measurement": "antiviral activity against HAdV (in words)", "setting": "human adenovirus (HAdV)", "value": "did not have activity"},
      {"measurement": "antiviral activity against RVFV (in words)", "setting": "[9]", "value": "dose–response antiviral activity"}
    ]},
    {"smiles": "O=C(Nc1ccc(Oc2ccncc2)cc1)Nc1cc(C(F)(F)F)ccc1-n1cncn1", "note": "[Compound 3]", "values": [
      {"measurement": "pIC50", "setting": "TIE-2 [4]", "value": 7.44},
      {"measurement": "host cell toxicity by visual observation", "setting": "A549 cells", "value": "displayed host cell toxicity at the highest concentrations"},
      {"measurement": "antiviral activity against HAdV (in words)", "setting": "human adenovirus (HAdV)", "value": "most potent compound"},
      {"measurement": "antiviral activity against RVFV (in words)", "setting": "[9]", "value": "most potent compound"}
    ]},
    {"smiles": "CNC(=O)c1cc(Oc2ccc(NC(=O)Nc3cc(C)c(Cl)cc3-n3cccc3)cc2)ccn1", "note": "[Compound 4]", "values": [
      {"measurement": "pIC50", "setting": "[1]", "value": 4.97},
      {"measurement": "pIC50", "setting": "CDK8", "value": 7.51},
      {"measurement": "activity against HSV-1", "setting": "[3]", "value": "Not Active"},
      {"measurement": "pIC50", "setting": "TIE-2 [4]", "value": 6.90},
      {"measurement": "activity against ZIKV", "setting": "[5]", "value": "dose-dependent activity; also recorded: Active"},
      {"measurement": "pIC50", "setting": "SARS-CoV-2 [6]; Severe acute respiratory syndrome coronavirus 2, read-out: IC50 against SARS-CoV-2", "value": 5.11},
      {"measurement": "pIC50", "setting": "MAPK14", "value": 7.06},
      {"measurement": "activity against CHKV", "setting": "[7]; Vero cells, MOI 0.01, column of table headed IC50 [µM]", "value": "Not Active"},
      {"measurement": "activity against HSV-2", "setting": "[8]", "value": "dose-dependent activity; also recorded: Active"},
      {"measurement": "pIC50", "setting": "adenovirus 5 (HAdV5); Human mastadenovirus C, Vero", "value": 6.22},
      {"measurement": "pIC50", "setting": "adenovirus 5 (HAdV5)", "value": 6.20},
      {"measurement": "pIC50", "setting": "[10]; Dengue virus, Vero", "value": 8.00},
      {"measurement": "pIC50", "setting": "[10]", "value": 7.92},
      {"measurement": "pIC50", "setting": "MAPK11", "value": 6.37},
      {"measurement": "pIC50", "setting": "SARS-CoV-2 [11]; Severe acute respiratory syndrome coronavirus 2, HeLa-ACE2 cells, 24 h, immunofluorescence of infected cells", "value": 6.30},
      {"measurement": "pIC50", "setting": "KDR", "value": 8.10},
      {"measurement": "inhibition of TIE-2 (in words)", "setting": "TIE-2 [12]", "value": "strong inhibition"},
      {"measurement": "animal survival after lethal SARS-CoV-2 challenge", "setting": "SARS-CoV-2 [13]; [15]", "value": "protective effect on animal survival; also recorded: increased survival"},
      {"measurement": "body weight loss after infection", "setting": "SARS-CoV-2 [13]; [15]", "value": "reduced body weight loss"},
      {"measurement": "viral titers in lungs", "setting": "SARS-CoV-2 [13]; days 1, 3 and 6 after infection, qRT-PCR", "value": "statistically significant reduction in viral titers; also recorded: reduced viral load in lungs"},
      {"measurement": "inhibition of SARS-CoV-2 replication in primary human mucociliary airway model", "setting": "SARS-CoV-2 [14]", "value": "showed activity"}
    ]}
  ]
}
